Reference: ChEMBL document CHEMBL4483862, “Open-source discovery of chemical leads for next-generation chemoprotective antimalarials” (2018)

Test system: Plasmodium berghei
Experiment: Luciferase/luciferin-expressing antifolate-resistant parasites were used to infect a culture of HepG2 cells that were pre-incubated with compounds. Infected hepatocytes emit light due to the luciferase reaction. Assay results are presented as the percent inhibition of light emission compared to control. […]
Type: functional
Conditions: sporozoite; for IC90: read-out: LUCIFERASE INFECTION ASSAY - IC90
[1] = read-out: LUCIFERASE INFECTION ASSAY - IC50

SMILES: CCc1nc2ccc(C(=O)N3CCCCC3)cn2c1N(C)CCC(C)C
- IC50 [1]: > 9.26 µM
- IC90: > 9.26 µM

SMILES: COc1cccc(-c2cc(=O)n3c(nc4ccccc43)[nH]2)c1
- IC50 [1]: > 11.3 µM
- IC90: > 11.3 µM

SMILES: COc1ccc(-n2ncc(C(=O)Nc3nc(-c4ccc5ccccc5c4)cs3)c2C(F)(F)F)nn1
- IC50 (HEPG2TOX_HILL_SLOPE 2.25, 10.1, HEPG2TOX_R_SQUARED 0.989, 0.350, PBLUC_HILL_SLOPE 1.53, 1.53, PBLUC_R_SQUARED 0.682, 0.949, read-out: LUCIFERASE INFECTION ASSAY - IC50): 0.695 µM
- IC90: 2.93 µM

SMILES: Cc1cc(C)nc(-n2[nH]c3[nH]c(-c4cccc5ccccc45)cc(=O)c3c2=O)n1
- IC50 (HEPG2TOX_HILL_SLOPE 0.872, HEPG2TOX_R_SQUARED 0.686, PBLUC_HILL_SLOPE 1.74, PBLUC_R_SQUARED 0.695, read-out: LUCIFERASE INFECTION ASSAY - IC50): 0.566 µM
- IC90: 1.99 µM

SMILES: Cc1cc(C(=O)CSc2nnc(Cn3cnc4ccccc43)n2-c2ccccc2Cl)c(C)n1C
- IC50 [1]: > 10 µM
- IC90: > 10 µM

SMILES: Cc1ccc(-n2c(SCC(=O)NC34CC5CC(CC(C5)C3)C4)nnc2-c2ccccc2)cc1C
- IC50 (FFLUC_HILL_SLOPE 8.79, FFLUC_R_SQUARED 0.279, read-out: LUCIFERASE INFECTION ASSAY - IC50): > 10 µM
- IC90: > 10 µM

SMILES: CN(C)c1nc(N)nc(CSc2nc(N)c3c4c(sc3n2)CCCC4)n1
- IC50 (HEPG2TOX_HILL_SLOPE 2.63, HEPG2TOX_R_SQUARED 0.627, PBLUC_HILL_SLOPE 2.91, PBLUC_R_SQUARED 0.214, read-out: LUCIFERASE INFECTION ASSAY - IC50): 9.21 µM
- IC90: > 10 µM

SMILES: Cc1nn(C)c2ncc(C(=O)Nc3ccc(F)c(Cl)c3)c(SC(C)C)c12
- IC50 [1]: > 8.4 µM
- IC90: > 8.4 µM

SMILES: COc1ccc(N(C)S(=O)(=O)c2cccc(C(=O)Nc3ccc(Br)c(C(F)(F)F)c3)c2)cc1
- IC50 [1]: > 10 µM
- IC90: > 10 µM

SMILES: c1csc(-c2cn3c(-c4ccncc4)cnc3cn2)c1
- IC50 (PBLUC_HILL_SLOPE 5.41, PBLUC_R_SQUARED 0.452, read-out: LUCIFERASE INFECTION ASSAY - IC50): 10.5 µM
- IC90: > 11.9 µM

SMILES: COc1cc(N2C(=O)C=CC2=O)cc(OC)c1OC
- IC50 (HEPG2TOX_HILL_SLOPE 7.92, HEPG2TOX_R_SQUARED 0.512, PBLUC_HILL_SLOPE 9.52, PBLUC_R_SQUARED 0.0663, read-out: LUCIFERASE INFECTION ASSAY - IC50): > 12.5 µM
- IC90: > 12.5 µM

SMILES: O=C1c2ccccc2O[C@@H](c2ccccc2)[C@H]1O
- IC50 [1]: > 13.7 µM
- IC90: > 13.7 µM

SMILES: CCOc1ccc(OCC)c(NC(=O)/C=C/c2ccc(OCc3cn4ccccc4n3)cc2)c1
- IC50 (PBLUC_HILL_SLOPE 4.17, PBLUC_R_SQUARED 0.3, read-out: LUCIFERASE INFECTION ASSAY - IC50): 8.87 µM
- IC90: > 10 µM

SMILES: O=C(Nc1ccc(F)cc1)Nc1cnn(-c2ccc(Cl)cc2)c1C(F)(F)F
- IC50 (PBLUC_HILL_SLOPE 1.06, PBLUC_R_SQUARED 0.652, read-out: LUCIFERASE INFECTION ASSAY - IC50): 0.266 µM
- IC90: 2.1 µM

SMILES: CN(C)C(=O)c1ccc(-c2cc3cnc(Nc4cccc(O)c4)cc3n2Cc2ccccc2)cc1
- IC50 (HEPG2TOX_HILL_SLOPE 12, HEPG2TOX_R_SQUARED 0.529, PBLUC_HILL_SLOPE 3.22, PBLUC_R_SQUARED 0.748, read-out: LUCIFERASE INFECTION ASSAY - IC50): 4.99 µM
- IC90: 9.88 µM

SMILES: Brc1ccc(-c2ccc(CN3CCNCC3)s2)cc1
- IC50 (HEPG2TOX_HILL_SLOPE 2.72, HEPG2TOX_R_SQUARED 0.0418, read-out: LUCIFERASE INFECTION ASSAY - IC50): > 10 µM
- IC90: > 10 µM

SMILES: CCOC(=O)C1=C(COC(=O)c2oc3ccc(OC)cc3c2C)NC(=O)NC1
- IC50 (HEPG2TOX_HILL_SLOPE 3.23, HEPG2TOX_R_SQUARED 0.736, PBLUC_HILL_SLOPE 1.66, PBLUC_R_SQUARED 0.334, read-out: LUCIFERASE INFECTION ASSAY - IC50): > 10 µM
- IC90: > 10 µM

SMILES: COc1ccc(Nc2c(Cl)cc(OC)cc2Cl)cc1
- IC50 (HEPG2TOX_HILL_SLOPE 2.37, HEPG2TOX_R_SQUARED 0.991, PBLUC_HILL_SLOPE 4.31, PBLUC_R_SQUARED 0.544, read-out: LUCIFERASE INFECTION ASSAY - IC50): 2.31 µM
- IC90: 3.85 µM

SMILES: FC1(F)Oc2ccc(Nc3cc(-c4cc(Cl)cc(Cl)c4)ncn3)cc2OC1(F)F
- IC50 (HEPG2TOX_HILL_SLOPE 15.2, HEPG2TOX_R_SQUARED 0.834, PBLUC_HILL_SLOPE 14.8, PBLUC_R_SQUARED 0.0861, read-out: LUCIFERASE INFECTION ASSAY - IC50): 6.88 µM
- IC90: > 7.4 µM

SMILES: Cc1ccc(NC(=O)Cc2csc(NC(=O)C3CC3)n2)cc1Cl
- IC50 (FFLUC_HILL_SLOPE 0.917, FFLUC_R_SQUARED 0.0768, HEPG2TOX_HILL_SLOPE 0.677, HEPG2TOX_R_SQUARED 0.444, PBLUC_HILL_SLOPE 1.82, PBLUC_R_SQUARED 0.301, read-out: LUCIFERASE INFECTION ASSAY - IC50): > 10 µM
- IC90: > 10 µM

SMILES: Cn1c(-c2ccccc2)c(C(=O)CSc2nnc(-c3cccs3)[nH]2)c2ccccc21
- IC50 (HEPG2TOX_HILL_SLOPE 1.76, HEPG2TOX_R_SQUARED 0.96, PBLUC_HILL_SLOPE 1.67, PBLUC_R_SQUARED 0.727, read-out: LUCIFERASE INFECTION ASSAY - IC50): 2.1 µM
- IC90: 7.84 µM

SMILES: Cc1ccc(-c2nc(NC(=O)c3ccc4c(=O)[nH]c(=O)n(C)c4n3)sc2-c2ccc(C)cc2)cc1
- IC50 (FFLUC_HILL_SLOPE 5.14, FFLUC_R_SQUARED 0.303, PBLUC_HILL_SLOPE 8.87, PBLUC_R_SQUARED 0.194, read-out: LUCIFERASE INFECTION ASSAY - IC50): 3.57 µM
- IC90: 4.58 µM

SMILES: O=[N+]([O-])c1cc(-c2nc(-c3cc(C(F)(F)F)cc(C(F)(F)F)c3)no2)cs1
- IC50 (HEPG2TOX_HILL_SLOPE 11.5, HEPG2TOX_R_SQUARED 0.674, read-out: LUCIFERASE INFECTION ASSAY - IC50): > 8.06 µM
- IC90: > 8.06 µM

SMILES: C=c1ccccc1=C1NN=C(Nc2ccc(F)c(F)c2F)O1
- IC50 (FFLUC_HILL_SLOPE 1.45, FFLUC_R_SQUARED 0.745, PBLUC_HILL_SLOPE 0.464, PBLUC_R_SQUARED 0.746, read-out: LUCIFERASE INFECTION ASSAY - IC50): 0.97 µM
- IC90: > 10 µM

SMILES: CN(C)c1cccc(CNc2nccc3nc(-c4ccncc4)[nH]c23)c1
- IC50 [1]: > 10 µM
- IC90: > 10 µM

SMILES: COc1ccccc1NC(=S)NC(c1ccccc1)c1ccccc1
- IC50 [1]: > 9.47 µM
- IC90: > 9.47 µM

SMILES: CC(NC(=O)COC(=O)c1cc(O)c2ccccc2c1O)C1CC2CCC1C2 (stereo not given)
- IC50 [1]: > 10 µM
- IC90: > 10 µM

SMILES: Cn1cc(/C=C/C(=O)Nc2ncc(Cc3ccccc3)s2)cn1
- IC50 (HEPG2TOX_HILL_SLOPE 0.97, HEPG2TOX_R_SQUARED 0.894, PBLUC_HILL_SLOPE 1.67, PBLUC_R_SQUARED 0.671, read-out: LUCIFERASE INFECTION ASSAY - IC50): 0.578 µM
- IC90: 2.15 µM

SMILES: COc1ccc(OCc2noc(CN3CCc4ccccc43)n2)cc1
- IC50 [1]: > 2 µM
- IC90: > 2 µM

SMILES: c1ccc2c(-n3ccnc3)nc(-c3ccsc3)nc2c1
- IC50 (HEPG2TOX_HILL_SLOPE 9, HEPG2TOX_R_SQUARED 0.711, PBLUC_HILL_SLOPE 3.68, 14.1, PBLUC_R_SQUARED 0.615, 0.129, read-out: LUCIFERASE INFECTION ASSAY - IC50): 4.26 µM
- IC90: 7.73 µM

SMILES: O=c1c(Cl)c(Cl)cnn1Cc1nc2cc(Cl)ccc2n1Cc1ccccc1
- IC50 (FFLUC_HILL_SLOPE 21.9, FFLUC_R_SQUARED 0.587, HEPG2TOX_HILL_SLOPE 12.6, HEPG2TOX_R_SQUARED 0.77, read-out: LUCIFERASE INFECTION ASSAY - IC50): > 10 µM
- IC90: > 10 µM

SMILES: O=C(CN1C(=O)c2cccc([N+](=O)[O-])c2C1=O)OCC(=O)N1CCC(Cc2ccccc2)CC1
- IC50 [1]: > 10 µM
- IC90: > 10 µM

SMILES: c1csc(CNc2ccc3ncc(-c4ccc5[nH]ccc5c4)n3n2)c1
- IC50 (HEPG2TOX_HILL_SLOPE 1.89, HEPG2TOX_R_SQUARED 0.971, PBLUC_HILL_SLOPE 2.39, PBLUC_R_SQUARED 0.271, read-out: LUCIFERASE INFECTION ASSAY - IC50): 4.86 µM
- IC90: > 9.55 µM

SMILES: O=C(Nc1cccc(S(=O)(=O)N2CCCCC2)c1)c1cn(-c2ccccc2C(F)(F)F)nn1
- IC50 (FFLUC_HILL_SLOPE 0.647, FFLUC_R_SQUARED 0.258, read-out: LUCIFERASE INFECTION ASSAY - IC50): > 10 µM
- IC90: > 10 µM

SMILES: S=C(NCCc1csc2ccccc12)Nc1ccc(Cl)cc1
- IC50 (PBLUC_HILL_SLOPE 1.56, PBLUC_R_SQUARED 0.124, read-out: LUCIFERASE INFECTION ASSAY - IC50): > 9.51 µM
- IC90: > 9.51 µM

SMILES: COc1cc(/C=C(/C(=O)c2cccc(Cl)c2)c2nc3ccccc3[nH]2)ccc1OCc1ccccc1
- IC50 (HEPG2TOX_HILL_SLOPE 8.02, HEPG2TOX_R_SQUARED 0.115, read-out: LUCIFERASE INFECTION ASSAY - IC50): > 10 µM
- IC90: > 10 µM

SMILES: Brc1cnc(N2CCN(C(c3ccccc3)(c3ccccc3)c3ccccc3)CC2)nc1
- IC50 (FFLUC_HILL_SLOPE 9.83, FFLUC_R_SQUARED 0.0243, read-out: LUCIFERASE INFECTION ASSAY - IC50): > 6.8 µM
- IC90: > 6.8 µM

SMILES: Cc1ccccc1C(=O)Nc1nc2ccccn2c1C(=O)NC1CCCCC1
- IC50 (HEPG2TOX_HILL_SLOPE 2.99, HEPG2TOX_R_SQUARED 0.96, PBLUC_HILL_SLOPE 20.4, PBLUC_R_SQUARED 0.198, read-out: LUCIFERASE INFECTION ASSAY - IC50): 7.88 µM
- IC90: > 8.77 µM

SMILES: Cc1nn(-c2ccccc2)nc1C(=O)NCc1ccccc1-c1ccc(CN(C)C)cc1
- IC50 [1]: 3.7 µM
- IC90: 5.83 µM

SMILES: CC(=O)Nc1cccc(/C(C)=N/n2c(-c3cccc([N+](=O)[O-])c3)cs/c2=N\c2c(C)cccc2C)c1
- IC50 (FFLUC_HILL_SLOPE 18.6, FFLUC_R_SQUARED 0.557, PBLUC_HILL_SLOPE 12.4, PBLUC_R_SQUARED 0.7, read-out: LUCIFERASE INFECTION ASSAY - IC50): 3.49 µM
- IC90: 4.17 µM
